From US6358885B1, “Substituted phenylheterocyclic herbicides” (Mississippi State University, priority 1992, dated 2002)

What was measured:
Assay in all cases: Test B preemergence/postemergence greenhouse plant response rating 0 to 10
morningglory = type: in vivo, Ipomoea hederacea; conditions: for Plant response rating, Morningglory: 0 to 10 scale
Outline: (§1)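 Postemergence treatment of plants two to eighteen cm tall ran alongside preemergence treatment of planted seed, each using compound in a non-phytotoxic solvent.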

crabgrass = type: in vivo, Digitaria spp.; conditions: for Plant response rating, Crabgrass: 0 to 10 scale
Outline: as §1

blackgrass = type: in vivo, Alopecurus myosuroides; conditions: for Plant response rating, Blackgrass: 0 to 10 scale
Outline: as §1

soybean = type: in vivo, Glycine max; conditions: for Plant response rating, Soybean: 0 to 10 scale
Outline: as §1

chickweed = type: in vivo, Stellaria media; conditions: for Plant response rating, Chickweed: 0 to 10 scale
Outline: as §1

sugar beet = type: in vivo, Beta vulgaris; conditions: for Plant response rating, Sugar beet: 0 to 10 scale
Outline: as §1

rice = type: in vivo, Oryza sativa; conditions: for Plant response rating, Rice: 0 to 10 scale
Outline: as §1

velvetleaf = type: in vivo, Abutilon theophrasti; conditions: for Plant response rating, Velvetleaf: 0 to 10 scale
Outline: as §1

sorghum = type: in vivo, Sorghum bicolor; conditions: for Plant response rating, Sorghum: 0 to 10 scale
Outline: as §1

purple nutsedge = type: in vivo, Cyperus rotundus; conditions: for Plant response rating, Nutsedge: 0 to 10 scale
Outline: as §1

cocklebur = type: in vivo, Xanthium pensylvanicum; conditions: for Plant response rating, Cocklebur: 0 to 10 scale
Outline: as §1

cotton = type: in vivo, Gossypium hirsutum; conditions: for Plant response rating, Cotton: 0 to 10 scale
Outline: as §1

wheat = type: in vivo, Triticum aestivum; conditions: for Plant response rating, Wheat: 0 to 10 scale
Outline: as §1

barnyardgrass = type: in vivo, Echinochloa crus-galli; conditions: for Plant response rating, Barnyardgrass: 0 to 10 scale
Outline: as §1

lambsquarters = type: in vivo, Chenopodium album; conditions: for Plant response rating, Lambsquarter: 0 to 10 scale
Outline: as §1

bedstraw = type: in vivo, Galium aparine; conditions: for Plant response rating, Bedstraw: 0 to 10 scale
Outline: as §1

giant foxtail = type: in vivo, Setaria faberii; conditions: for Plant response rating, Giant foxtail: 0 to 10 scale
Outline: as §1

cheatgrass = type: in vivo, Bromus secalinus; conditions: for Plant response rating, Cheatgrass: POSTEMERGENCE, 0 to 10 scale
Outline: as §1

rape = type: in vivo, Brassica napus; conditions: for Plant response rating, Rape: 0 to 10 scale
Outline: as §1

wild buckwheat = type: in vivo, Polygonum convolvulus; conditions: for Plant response rating, Wild buckwheat: 0 to 10 scale
Outline: as §1

barley = type: in vivo, Hordeum vulgare; conditions: for Plant response rating, Barley: 0 to 10 scale
Outline: as §1

corn = type: in vivo, Zea mays; conditions: for Plant response rating, Corn: 0 to 10 scale
Outline: as §1

wild oat = type: in vivo, Avena fatua; conditions: for Plant response rating, Wild oat: 0 to 10 scale
Outline: as §1

Oc1cc(-c2nn3c(c2Cl)CCCC3)c(Cl)cc1Cl [Compound 68]
9: Plant response rating, Sugar beet (sugar beet; POSTEMERGENCE, Rate 50 g/ha) | Plant response rating (0 to 10 scale), Sugar beet (sugar beet; PREEMERGENCE, Rate 200 g/ha) | Plant response rating (0 to 10 scale), Velvetleaf (velvetleaf; PREEMERGENCE, Rate 200 g/ha) | Plant response rating, Bedstraw (bedstraw; Rate 200 g/ha, POSTEMERGENCE)
1: Plant response rating, Chickweed (chickweed; Rate 200 g/ha, POSTEMERGENCE)
6: Plant response rating, Soybean (soybean; Rate 200 g/ha, POSTEMERGENCE) | Plant response rating, Cocklebur (cocklebur; POSTEMERGENCE, Rate 50 g/ha) | Plant response rating, Lambsquarter (lambsquarters; PREEMERGENCE, Rate 50 g/ha)
10: Plant response rating, Sugar beet (sugar beet; Rate 200 g/ha, POSTEMERGENCE) | Plant response rating, Velvetleaf (velvetleaf; Rate 200 g/ha, POSTEMERGENCE) | Plant response rating, Cotton (cotton; POSTEMERGENCE, Rate 50 g/ha) | Plant response rating, Cotton (cotton; Rate 200 g/ha, POSTEMERGENCE) | Plant response rating, Lambsquarter (lambsquarters; POSTEMERGENCE, Rate 50 g/ha) | Plant response rating, Lambsquarter (lambsquarters; Rate 200 g/ha, POSTEMERGENCE) | Plant response rating, Wild buckwheat (wild buckwheat; POSTEMERGENCE, Rate 50 g/ha) | Plant response rating, Wild buckwheat (wild buckwheat; Rate 200 g/ha, POSTEMERGENCE)
2: Plant response rating (0 to 10 scale), Crabgrass (crabgrass; PREEMERGENCE, Rate 200 g/ha) | Plant response rating, Blackgrass (blackgrass; POSTEMERGENCE, Rate 50 g/ha) | Plant response rating, Blackgrass (blackgrass; PREEMERGENCE, Rate 50 g/ha) | Plant response rating, Chickweed (chickweed; PREEMERGENCE, Rate 50 g/ha) | Plant response rating (0 to 10 scale), Chickweed (chickweed; PREEMERGENCE, Rate 200 g/ha) | Plant response rating, Nutsedge (purple nutsedge; POSTEMERGENCE, Rate 50 g/ha) | Plant response rating, Barnyardgrass (barnyardgrass; POSTEMERGENCE, Rate 50 g/ha) | Plant response rating (0 to 10 scale), Bedstraw (bedstraw; PREEMERGENCE, Rate 200 g/ha) | Plant response rating, Cheatgrass (cheatgrass; Rate 50 g/ha) | Plant response rating, Wild oat (wild oat; POSTEMERGENCE, Rate 50 g/ha)
8: Plant response rating, Morningglory (morningglory; POSTEMERGENCE, Rate 50 g/ha) | Plant response rating, Morningglory (morningglory; Rate 200 g/ha, POSTEMERGENCE) | Plant response rating (0 to 10 scale), Blackgrass (blackgrass; PREEMERGENCE, Rate 200 g/ha) | Plant response rating, Velvetleaf (velvetleaf; POSTEMERGENCE, Rate 50 g/ha)
5: Plant response rating, Rice (rice; POSTEMERGENCE, Rate 50 g/ha) | Plant response rating, Rice (rice; Rate 200 g/ha, POSTEMERGENCE) | Plant response rating, Rape (rape; Rate 200 g/ha, POSTEMERGENCE)
7: Plant response rating, Cocklebur (cocklebur; Rate 200 g/ha, POSTEMERGENCE) | Plant response rating, Bedstraw (bedstraw; POSTEMERGENCE, Rate 50 g/ha)
4: Plant response rating, Crabgrass (crabgrass; Rate 200 g/ha, POSTEMERGENCE) | Plant response rating, Soybean (soybean; POSTEMERGENCE, Rate 50 g/ha) | Plant response rating, Sorghum (sorghum; Rate 200 g/ha, POSTEMERGENCE) | Plant response rating, Wheat (wheat; Rate 200 g/ha, POSTEMERGENCE) | Plant response rating, Giant foxtail (giant foxtail; POSTEMERGENCE, Rate 50 g/ha) | Plant response rating, Giant foxtail (giant foxtail; Rate 200 g/ha, POSTEMERGENCE) | Plant response rating (0 to 10 scale), Wild buckwheat (wild buckwheat; PREEMERGENCE, Rate 200 g/ha) | Plant response rating, Corn (corn; Rate 200 g/ha, POSTEMERGENCE)
3: Plant response rating, Crabgrass (crabgrass; POSTEMERGENCE, Rate 50 g/ha) | Plant response rating, Blackgrass (blackgrass; Rate 200 g/ha, POSTEMERGENCE) | Plant response rating, Sorghum (sorghum; POSTEMERGENCE, Rate 50 g/ha) | Plant response rating, Nutsedge (purple nutsedge; Rate 200 g/ha, POSTEMERGENCE) | Plant response rating, Wheat (wheat; POSTEMERGENCE, Rate 50 g/ha) | Plant response rating (0 to 10 scale), Wheat (wheat; PREEMERGENCE, Rate 200 g/ha) | Plant response rating, Barnyardgrass (barnyardgrass; Rate 200 g/ha, POSTEMERGENCE) | Plant response rating (0 to 10 scale), Cheatgrass (cheatgrass; PREEMERGENCE, Rate 200 g/ha) | Plant response rating, Cheatgrass (cheatgrass; Rate 200 g/ha) | Plant response rating, Rape (rape; POSTEMERGENCE, Rate 50 g/ha) | Plant response rating, Barley (barley; POSTEMERGENCE, Rate 50 g/ha) | Plant response rating, Barley (barley; Rate 200 g/ha, POSTEMERGENCE) | Plant response rating, Corn (corn; POSTEMERGENCE, Rate 50 g/ha) | Plant response rating, Wild oat (wild oat; Rate 200 g/ha, POSTEMERGENCE)
0: Plant response rating, Morningglory (morningglory; PREEMERGENCE, Rate 50 g/ha) | Plant response rating (0 to 10 scale), Morningglory (morningglory; PREEMERGENCE, Rate 200 g/ha) | Plant response rating, Crabgrass (crabgrass; PREEMERGENCE, Rate 50 g/ha) | Plant response rating, Soybean (soybean; PREEMERGENCE, Rate 50 g/ha) | Plant response rating (0 to 10 scale), Soybean (soybean; PREEMERGENCE, Rate 200 g/ha) | Plant response rating, Chickweed (chickweed; POSTEMERGENCE, Rate 50 g/ha) | Plant response rating, Sugar beet (sugar beet; PREEMERGENCE, Rate 50 g/ha) | Plant response rating, Rice (rice; PREEMERGENCE, Rate 50 g/ha) | Plant response rating (0 to 10 scale), Rice (rice; PREEMERGENCE, Rate 200 g/ha) | Plant response rating, Velvetleaf (velvetleaf; PREEMERGENCE, Rate 50 g/ha) | Plant response rating, Sorghum (sorghum; PREEMERGENCE, Rate 50 g/ha) | Plant response rating (0 to 10 scale), Sorghum (sorghum; PREEMERGENCE, Rate 200 g/ha) | Plant response rating, Nutsedge (purple nutsedge; PREEMERGENCE, Rate 50 g/ha) | Plant response rating (0 to 10 scale), Nutsedge (purple nutsedge; PREEMERGENCE, Rate 200 g/ha) | Plant response rating, Cocklebur (cocklebur; PREEMERGENCE, Rate 50 g/ha) | Plant response rating (0 to 10 scale), Cocklebur (cocklebur; PREEMERGENCE, Rate 200 g/ha) | Plant response rating, Cotton (cotton; PREEMERGENCE, Rate 50 g/ha) | Plant response rating (0 to 10 scale), Cotton (cotton; PREEMERGENCE, Rate 200 g/ha) | Plant response rating, Wheat (wheat; PREEMERGENCE, Rate 50 g/ha) | Plant response rating, Barnyardgrass (barnyardgrass; PREEMERGENCE, Rate 50 g/ha) | Plant response rating (0 to 10 scale), Barnyardgrass (barnyardgrass; PREEMERGENCE, Rate 200 g/ha) | Plant response rating (0 to 10 scale), Lambsquarter (lambsquarters; PREEMERGENCE, Rate 200 g/ha) | Plant response rating, Bedstraw (bedstraw; PREEMERGENCE, Rate 50 g/ha) | Plant response rating, Giant foxtail (giant foxtail; PREEMERGENCE, Rate 50 g/ha) | Plant response rating (0 to 10 scale), Giant foxtail (giant foxtail; PREEMERGENCE, Rate 200 g/ha) | Plant response rating, Rape (rape; PREEMERGENCE, Rate 50 g/ha) | Plant response rating (0 to 10 scale), Rape (rape; PREEMERGENCE, Rate 200 g/ha) | Plant response rating, Wild buckwheat (wild buckwheat; PREEMERGENCE, Rate 50 g/ha) | Plant response rating, Barley (barley; PREEMERGENCE, Rate 50 g/ha) | Plant response rating (0 to 10 scale), Barley (barley; PREEMERGENCE, Rate 200 g/ha) | Plant response rating, Corn (corn; PREEMERGENCE, Rate 50 g/ha) | Plant response rating (0 to 10 scale), Corn (corn; PREEMERGENCE, Rate 200 g/ha) | Plant response rating, Wild oat (wild oat; PREEMERGENCE, Rate 50 g/ha) | Plant response rating (0 to 10 scale), Wild oat (wild oat; PREEMERGENCE, Rate 200 g/ha)
